According to patent US10844077B2, “Thiazolyl-containing compounds for treating proliferative diseases” (Dana-Farber Cancer Institute, Inc., priority 2014, dated 2020):
Values joined by “and” are separate entries in the source; they are usually repeats but may differ in a detail not shown here. Identical values can stand only once.

Assays:
MARK1, MARK2 = test: KINATIV assay; format: cell-based; details: 1 μM, 90 minutes, BCWM.1 cells
Method: (§1) The cells were harvested and lysed. The lysates were directly labeled with an ATP-biotin probe. Bound kinases were identified and quantitated by ACTIVX as described in Patricelli et al., Biochemistry, 2007, 46(2): 350-358. The compounds were tested in duplicates against duplicate or quadruplicate control samples.

NEK3 = NEK3 (Homo sapiens (Human), UniProt P51956); test: KINATIV assay; format: cell-based; details: 1 μM, 90 minutes, BCWM.1 cells
Method: as §1

MAP2K1 = MAP2K1 (Homo sapiens (Human), UniProt Q02750); test: KINATIV assay; format: cell-based; details: 1 μM, 90 minutes, BCWM.1 cells
Method: as §1

KSR1, KSR2 = test: KINATIV assay; format: cell-based; details: 1 μM, 90 minutes, BCWM.1 cells
Method: as §1

LYN = LYN (Homo sapiens (Human), UniProt P07948); test: KINATIV assay; format: cell-based; details: 1 μM, 90 minutes, BCWM.1 cells
Method: as §1

RSK3 domain1 = RSK3 domain1 (Homo sapiens (Human), UniProt Q15349); test: KINATIV assay; format: cell-based; details: 1 μM, 90 minutes, BCWM.1 cells
Method: as §1

GSK3A = GSK3A (Homo sapiens (Human), UniProt P49840); test: KINATIV assay; format: cell-based; details: 1 μM, 90 minutes, BCWM.1 cells
Method: as §1

TBK1 = TBK1 (Homo sapiens (Human), UniProt Q9UHD2); test: KINATIV assay; format: cell-based; details: 1 μM, 90 minutes, BCWM.1 cells
Method: as §1

MST1, MST2 = test: KINATIV assay; format: cell-based; details: 1 μM, 90 minutes, BCWM.1 cells
Method: as §1

MAP3K4 = MAP3K4 (Homo sapiens (Human), UniProt Q9Y6R4); test: KINATIV assay; format: cell-based; details: 1 μM, 90 minutes, BCWM.1 cells
Method: as §1

KHS1 = KHS1 (Homo sapiens (Human), UniProt Q9Y4K4); test: KINATIV assay; format: cell-based; details: 1 μM, 90 minutes, BCWM.1 cells
Method: as §1

CaMK2d = CaMK2d (Homo sapiens (Human), UniProt Q13557); test: KINATIV assay; format: cell-based; details: 1 μM, 90 minutes, BCWM.1 cells
Method: as §1

AurA, AurB, AurC = test: KINATIV assay; format: cell-based; details: 1 μM, 90 minutes, BCWM.1 cells
Method: as §1

EphB2 = EphB2 (Homo sapiens (Human), UniProt P29323); test: KINATIV assay; format: cell-based; details: 1 μM, 90 minutes, BCWM.1 cells
Method: as §1

LATS2 = LATS2 (Homo sapiens (Human), UniProt Q9NRM7); test: KINATIV assay; format: cell-based; details: 1 μM, 90 minutes, BCWM.1 cells
Method: as §1

MAP2K6 = MAP2K6 (Homo sapiens (Human), UniProt P52564); test: KINATIV assay; format: cell-based; details: 1 μM, 90 minutes, BCWM.1 cells
Method: as §1

TLK1 = TLK1 (Homo sapiens (Human), UniProt Q9UKI8); test: KINATIV assay; format: cell-based; details: 1 μM, 90 minutes, BCWM.1 cells
Method: as §1

FRAP = FRAP (Homo sapiens (Human), UniProt P42345); test: KINATIV assay; format: cell-based; details: 1 μM, 90 minutes, BCWM.1 cells
Method: as §1

CLK3 = CLK3 (Homo sapiens (Human), UniProt P49761); test: KINATIV assay; format: cell-based; details: 1 μM, 90 minutes, BCWM.1 cells
Method: as §1

MARK2, MARK3 = test: KINATIV assay; format: cell-based; details: 1 μM, 90 minutes, BCWM.1 cells
Method: as §1

STLK6 = STLK6 (Homo sapiens (Human), UniProt Q9C0K7); test: KINATIV assay; format: cell-based; details: 1 μM, 90 minutes, BCWM.1 cells
Method: as §1

FRK = FRK (Homo sapiens (Human), UniProt P42685); test: KINATIV assay; format: cell-based; details: 1 μM, 90 minutes, BCWM.1 cells
Method: as §1

GCN2 = GCN2 (Homo sapiens (Human), UniProt Q9P2K8); test: KINATIV assay; format: cell-based; details: 1 μM, 90 minutes, BCWM.1 cells
Method: as §1

MST4, YSK1 = test: KINATIV assay; format: cell-based; details: 1 μM, 90 minutes, BCWM.1 cells
Method: as §1

PITSLRE = test: KINATIV assay; format: cell-based; details: 1 μM, 90 minutes, BCWM.1 cells
Method: as §1

p38b = p38b (Homo sapiens (Human), UniProt Q15759); test: KINATIV assay; format: cell-based; details: 1 μM, 90 minutes, BCWM.1 cells
Method: as §1

BLK = BLK (Homo sapiens (Human), UniProt P51451); test: KINATIV assay; format: cell-based; details: 1 μM, 90 minutes, BCWM.1 cells
Method: as §1

PEK = PEK (Homo sapiens (Human), UniProt Q9NZJ5); test: KINATIV assay; format: cell-based; details: 1 μM, 90 minutes, BCWM.1 cells
Method: as §1

IRE1 = IRE1 (Homo sapiens (Human), UniProt O75460); test: KINATIV assay; format: cell-based; details: 1 μM, 90 minutes, BCWM.1 cells
Method: as §1

PIK3CB = PIK3CB (Homo sapiens (Human), UniProt P42338); test: KINATIV assay; format: cell-based; details: 1 μM, 90 minutes, BCWM.1 cells
Method: as §1

MAP3K3 = MAP3K3 (Homo sapiens (Human), UniProt Q99759); test: KINATIV assay; format: cell-based; details: 1 μM, 90 minutes, BCWM.1 cells
Method: as §1

FYN, SRC, YES = test: KINATIV assay; format: cell-based; details: 1 μM, 90 minutes, BCWM.1 cells
Method: as §1

CK1g2 = CK1g2 (Homo sapiens (Human), UniProt P78368); test: KINATIV assay; format: cell-based; details: 1 μM, 90 minutes, BCWM.1 cells
Method: as §1

RSK2 domain2 = RSK2 domain2 (Homo sapiens (Human), UniProt P51812); test: KINATIV assay; format: cell-based; details: 1 μM, 90 minutes, BCWM.1 cells
Method: as §1

NEK4 = NEK4 (Homo sapiens (Human), UniProt P51957); test: KINATIV assay; format: cell-based; details: 1 μM, 90 minutes, BCWM.1 cells
Method: as §1

PCTAIRE1, PCTAIRE3 = test: KINATIV assay; format: cell-based; details: 1 μM, 90 minutes, BCWM.1 cells
Description: (§2) The cells were harvested and lysed.

PCTAIRE2, PCTAIRE3 = test: KINATIV assay; format: cell-based; details: 1 μM, 90 minutes, BCWM.1 cells
Description: as §2

MAPKAPK3 = MAPKAPK3 (Homo sapiens (Human), UniProt Q16644)
Method: as §1

PRP4 = PRP4 (Homo sapiens (Human), UniProt Q13523)
Method: as §1

PRPK = PRPK (Homo sapiens (Human), UniProt Q96S44)
Method: as §1

PCTAIRE2 = PCTAIRE2 (Homo sapiens (Human), UniProt Q00537)
Method: as §1

PCTAIRE1 = PCTAIRE1 (Homo sapiens (Human), UniProt Q00536)
Method: as §1

Chain of TLK1 (Q9UKI8 whole entry): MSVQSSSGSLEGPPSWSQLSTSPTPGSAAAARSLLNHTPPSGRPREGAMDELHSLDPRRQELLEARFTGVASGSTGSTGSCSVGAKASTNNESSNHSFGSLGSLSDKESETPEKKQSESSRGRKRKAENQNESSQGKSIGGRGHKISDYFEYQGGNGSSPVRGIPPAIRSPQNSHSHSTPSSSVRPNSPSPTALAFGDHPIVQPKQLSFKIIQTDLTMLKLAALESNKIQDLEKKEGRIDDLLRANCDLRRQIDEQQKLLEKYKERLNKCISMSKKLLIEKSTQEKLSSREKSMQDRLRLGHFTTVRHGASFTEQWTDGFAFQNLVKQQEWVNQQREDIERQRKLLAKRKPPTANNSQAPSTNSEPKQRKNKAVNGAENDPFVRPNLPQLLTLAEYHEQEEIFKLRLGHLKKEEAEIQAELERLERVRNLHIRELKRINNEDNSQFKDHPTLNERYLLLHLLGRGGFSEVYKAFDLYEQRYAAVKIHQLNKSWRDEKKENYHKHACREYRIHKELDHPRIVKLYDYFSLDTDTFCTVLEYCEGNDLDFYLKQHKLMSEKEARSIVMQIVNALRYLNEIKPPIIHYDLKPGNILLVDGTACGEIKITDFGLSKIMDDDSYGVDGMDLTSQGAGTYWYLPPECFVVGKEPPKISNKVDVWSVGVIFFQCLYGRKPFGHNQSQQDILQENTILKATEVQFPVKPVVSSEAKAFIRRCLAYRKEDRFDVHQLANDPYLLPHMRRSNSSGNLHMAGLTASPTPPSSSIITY
Chain of LYN (P07948 whole entry): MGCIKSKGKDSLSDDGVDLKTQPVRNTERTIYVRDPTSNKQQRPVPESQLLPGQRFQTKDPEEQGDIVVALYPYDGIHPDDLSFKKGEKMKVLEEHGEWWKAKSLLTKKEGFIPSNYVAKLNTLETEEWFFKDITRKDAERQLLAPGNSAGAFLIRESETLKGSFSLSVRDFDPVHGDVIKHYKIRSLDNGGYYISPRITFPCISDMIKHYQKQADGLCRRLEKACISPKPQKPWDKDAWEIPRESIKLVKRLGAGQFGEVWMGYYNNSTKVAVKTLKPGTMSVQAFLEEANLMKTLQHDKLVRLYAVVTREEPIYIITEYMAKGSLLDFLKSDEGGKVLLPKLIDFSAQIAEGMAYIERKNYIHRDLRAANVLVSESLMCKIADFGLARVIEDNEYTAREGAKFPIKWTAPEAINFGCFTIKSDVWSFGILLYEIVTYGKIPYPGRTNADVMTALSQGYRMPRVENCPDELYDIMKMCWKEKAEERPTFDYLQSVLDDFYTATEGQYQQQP
Chain of GCN2 (Q9P2K8 whole entry): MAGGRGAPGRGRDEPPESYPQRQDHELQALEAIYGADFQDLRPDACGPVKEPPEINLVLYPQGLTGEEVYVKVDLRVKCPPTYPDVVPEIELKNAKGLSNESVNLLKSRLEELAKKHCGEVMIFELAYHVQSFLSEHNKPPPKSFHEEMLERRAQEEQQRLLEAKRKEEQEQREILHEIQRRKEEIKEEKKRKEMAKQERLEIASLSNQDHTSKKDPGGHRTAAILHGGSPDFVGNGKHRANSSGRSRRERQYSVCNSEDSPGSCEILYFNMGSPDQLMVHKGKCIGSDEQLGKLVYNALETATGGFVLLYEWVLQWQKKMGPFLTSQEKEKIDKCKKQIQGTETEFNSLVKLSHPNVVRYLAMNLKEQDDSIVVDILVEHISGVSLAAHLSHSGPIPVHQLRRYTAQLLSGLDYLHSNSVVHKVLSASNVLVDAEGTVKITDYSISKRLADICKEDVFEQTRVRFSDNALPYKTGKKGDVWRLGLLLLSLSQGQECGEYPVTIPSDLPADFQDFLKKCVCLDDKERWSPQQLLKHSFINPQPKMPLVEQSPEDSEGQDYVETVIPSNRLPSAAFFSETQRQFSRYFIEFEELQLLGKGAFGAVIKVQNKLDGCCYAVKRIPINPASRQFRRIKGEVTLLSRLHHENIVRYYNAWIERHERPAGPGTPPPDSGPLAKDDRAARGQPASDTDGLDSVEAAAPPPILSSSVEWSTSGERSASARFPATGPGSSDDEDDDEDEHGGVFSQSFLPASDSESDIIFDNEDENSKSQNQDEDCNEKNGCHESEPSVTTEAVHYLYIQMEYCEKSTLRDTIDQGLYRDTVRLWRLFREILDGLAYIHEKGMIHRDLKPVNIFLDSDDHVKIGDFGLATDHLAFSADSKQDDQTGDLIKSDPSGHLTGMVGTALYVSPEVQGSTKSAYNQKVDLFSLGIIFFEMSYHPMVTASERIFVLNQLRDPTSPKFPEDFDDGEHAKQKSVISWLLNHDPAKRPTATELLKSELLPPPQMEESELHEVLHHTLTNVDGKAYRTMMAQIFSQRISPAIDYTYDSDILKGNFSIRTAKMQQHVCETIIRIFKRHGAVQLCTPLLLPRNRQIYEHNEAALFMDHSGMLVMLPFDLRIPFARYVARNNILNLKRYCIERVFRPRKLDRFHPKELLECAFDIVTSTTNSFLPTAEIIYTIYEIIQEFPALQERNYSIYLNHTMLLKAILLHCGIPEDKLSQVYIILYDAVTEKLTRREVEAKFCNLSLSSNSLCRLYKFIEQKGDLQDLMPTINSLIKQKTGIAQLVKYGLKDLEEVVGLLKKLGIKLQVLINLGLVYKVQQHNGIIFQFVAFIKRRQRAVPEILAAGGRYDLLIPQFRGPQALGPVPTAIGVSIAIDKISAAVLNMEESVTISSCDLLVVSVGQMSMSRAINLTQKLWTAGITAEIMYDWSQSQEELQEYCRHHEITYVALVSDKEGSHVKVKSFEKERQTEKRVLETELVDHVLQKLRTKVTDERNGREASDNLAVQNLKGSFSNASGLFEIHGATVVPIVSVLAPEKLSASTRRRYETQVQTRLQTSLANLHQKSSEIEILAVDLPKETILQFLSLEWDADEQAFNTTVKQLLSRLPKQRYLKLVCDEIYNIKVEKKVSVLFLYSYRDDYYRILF
Chain of MAP2K6 (P52564 whole entry): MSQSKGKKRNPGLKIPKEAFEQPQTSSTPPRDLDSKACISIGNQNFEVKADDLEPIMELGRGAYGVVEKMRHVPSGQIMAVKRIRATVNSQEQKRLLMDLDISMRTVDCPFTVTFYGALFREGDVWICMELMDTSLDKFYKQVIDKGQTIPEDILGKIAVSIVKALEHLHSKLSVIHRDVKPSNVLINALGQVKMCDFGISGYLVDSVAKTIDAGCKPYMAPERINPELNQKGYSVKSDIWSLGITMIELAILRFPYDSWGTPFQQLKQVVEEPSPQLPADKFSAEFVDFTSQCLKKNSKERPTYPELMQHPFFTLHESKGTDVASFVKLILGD
Chain of KHS1 (Q9Y4K4 whole entry): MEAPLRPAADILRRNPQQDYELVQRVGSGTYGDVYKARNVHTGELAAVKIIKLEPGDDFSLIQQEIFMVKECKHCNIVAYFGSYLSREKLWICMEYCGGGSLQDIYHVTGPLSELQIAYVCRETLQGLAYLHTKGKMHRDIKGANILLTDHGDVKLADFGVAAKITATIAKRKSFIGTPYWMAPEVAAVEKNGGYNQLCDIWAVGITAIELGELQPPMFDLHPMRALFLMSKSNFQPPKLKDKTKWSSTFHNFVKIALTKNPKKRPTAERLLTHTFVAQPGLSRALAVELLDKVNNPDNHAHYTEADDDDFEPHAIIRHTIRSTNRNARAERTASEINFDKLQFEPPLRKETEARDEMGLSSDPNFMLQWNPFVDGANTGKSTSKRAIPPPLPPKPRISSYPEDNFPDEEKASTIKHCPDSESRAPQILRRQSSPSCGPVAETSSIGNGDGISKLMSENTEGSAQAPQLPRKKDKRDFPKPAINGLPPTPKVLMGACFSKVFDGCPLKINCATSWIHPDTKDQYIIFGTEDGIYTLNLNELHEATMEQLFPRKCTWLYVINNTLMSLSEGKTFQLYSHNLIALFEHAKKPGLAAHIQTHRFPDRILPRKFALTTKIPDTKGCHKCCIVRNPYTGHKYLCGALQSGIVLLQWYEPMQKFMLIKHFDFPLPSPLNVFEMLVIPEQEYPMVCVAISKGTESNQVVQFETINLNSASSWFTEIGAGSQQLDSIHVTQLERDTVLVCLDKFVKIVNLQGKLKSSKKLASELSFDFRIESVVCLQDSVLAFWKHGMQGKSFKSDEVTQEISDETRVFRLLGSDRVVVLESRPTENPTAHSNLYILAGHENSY
Chain of NEK4 (P51957 whole entry): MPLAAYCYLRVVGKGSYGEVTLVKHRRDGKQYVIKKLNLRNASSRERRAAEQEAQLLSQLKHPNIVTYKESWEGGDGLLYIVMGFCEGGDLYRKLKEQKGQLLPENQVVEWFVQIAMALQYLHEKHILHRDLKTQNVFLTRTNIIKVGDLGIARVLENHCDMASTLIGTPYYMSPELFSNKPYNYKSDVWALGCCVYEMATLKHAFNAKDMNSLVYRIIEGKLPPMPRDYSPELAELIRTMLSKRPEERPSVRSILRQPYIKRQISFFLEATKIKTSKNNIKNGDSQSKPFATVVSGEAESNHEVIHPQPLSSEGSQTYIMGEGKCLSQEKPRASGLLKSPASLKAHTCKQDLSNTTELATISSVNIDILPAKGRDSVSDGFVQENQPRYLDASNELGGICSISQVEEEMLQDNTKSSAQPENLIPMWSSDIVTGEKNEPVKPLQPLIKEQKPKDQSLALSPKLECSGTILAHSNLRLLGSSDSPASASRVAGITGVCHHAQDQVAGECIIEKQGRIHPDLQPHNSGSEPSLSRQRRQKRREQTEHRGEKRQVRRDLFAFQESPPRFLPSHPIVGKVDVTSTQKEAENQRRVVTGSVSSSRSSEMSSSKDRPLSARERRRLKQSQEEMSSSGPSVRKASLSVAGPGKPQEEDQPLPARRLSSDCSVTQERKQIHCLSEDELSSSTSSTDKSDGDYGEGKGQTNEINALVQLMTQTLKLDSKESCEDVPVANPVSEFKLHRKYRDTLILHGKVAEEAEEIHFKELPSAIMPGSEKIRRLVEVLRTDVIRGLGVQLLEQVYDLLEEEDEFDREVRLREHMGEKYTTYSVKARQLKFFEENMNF

## C=CC(=O)N1CC[C@@H](Nc2nccc(Nc3ncc(C(=O)Nc4c(C)cccc4C)s3)n2)C1 [Example I-4]
MARK1, MARK2
  % change of MS signal compared to control sample: 17.1%
NEK3
  % change of MS signal compared to control sample: 3.5%
MAP2K1
  % change of MS signal compared to control sample: −31.6%
KSR1, KSR2
  % change of MS signal compared to control sample: −8.9%
LYN
  % change of MS signal compared to control sample: >97% and >90%
RSK3 domain1
  % change of MS signal compared to control sample: −26.9%
GSK3A
  % change of MS signal compared to control sample: −10.5%
TBK1
  % change of MS signal compared to control sample: −34.8%
MST1, MST2
  % change of MS signal compared to control sample: 3.8%
MAP3K4
  % change of MS signal compared to control sample: −20.5%
KHS1
  % change of MS signal compared to control sample: −2.1%
CaMK2d
  % change of MS signal compared to control sample: −8.5%
AurA, AurB, AurC
  % change of MS signal compared to control sample: 2.3%
EphB2
  % change of MS signal compared to control sample: >90%
LATS2
  % change of MS signal compared to control sample: −9.2%
MAP2K6
  % change of MS signal compared to control sample: −18.0% and −10.7%
TLK1
  % change of MS signal compared to control sample: 2.2% and 8.2%
FRAP
  % change of MS signal compared to control sample: 4.9%
CLK3
  % change of MS signal compared to control sample: −1.3%
MARK2, MARK3
  % change of MS signal compared to control sample: −31.5%
STLK6
  % change of MS signal compared to control sample: 7.4%
FRK
  % change of MS signal compared to control sample: 87.5%
GCN2
  % change of MS signal compared to control sample: −11.0% and −5.7%
MST4, YSK1
  % change of MS signal compared to control sample: 20.5%
PITSLRE
  % change of MS signal compared to control sample: −13.6%
p38b
  % change of MS signal compared to control sample: −29.6%
BLK
  % change of MS signal compared to control sample: >95%
PEK
  % change of MS signal compared to control sample: −44.9%
IRE1
  % change of MS signal compared to control sample: −44.3%
PIK3CB
  % change of MS signal compared to control sample: −61.3%
MAP3K3
  % change of MS signal compared to control sample: −0.7%
FYN, SRC, YES
  % change of MS signal compared to control sample: 97.4%
CK1g2
  % change of MS signal compared to control sample: −4.5%
RSK2 domain2
  % change of MS signal compared to control sample: 13.8%
NEK4
  % change of MS signal compared to control sample: 12.3%
PCTAIRE1, PCTAIRE3
  % change of MS signal compared to control sample: 12.7%
PCTAIRE2, PCTAIRE3
  % change of MS signal compared to control sample: 27.9%
MAPKAPK3
  % change of MS signal compared to control sample: 7.0%
PRP4
  % change of MS signal compared to control sample: 6.9%
PRPK
  % change of MS signal compared to control sample: −13.6%
PCTAIRE2
  % change of MS signal compared to control sample: 13.4%
PCTAIRE1
  % change of MS signal compared to control sample: 19.0%

## C=CC(=O)N1CCCCC(Nc2nccc(Nc3ncc(C(=O)Nc4c(C)cccc4C)s3)n2)C1 (stereo not drawn) [Example I-7]
MARK1, MARK2
  % change of MS signal compared to control sample: 7.9%
NEK3
  % change of MS signal compared to control sample: 15.6%
MAP2K1
  % change of MS signal compared to control sample: −3.7%
KSR1, KSR2
  % change of MS signal compared to control sample: −10.1%
LYN
  % change of MS signal compared to control sample: >97% and >90%
RSK3 domain1
  % change of MS signal compared to control sample: −48.6%
GSK3A
  % change of MS signal compared to control sample: −11.3%
TBK1
  % change of MS signal compared to control sample: −39.7%
MST1, MST2
  % change of MS signal compared to control sample: 9.5%
MAP3K4
  % change of MS signal compared to control sample: −24.2%
KHS1
  % change of MS signal compared to control sample: −5.9%
CaMK2d
  % change of MS signal compared to control sample: −22.5%
AurA, AurB, AurC
  % change of MS signal compared to control sample: 0.4%
EphB2
  % change of MS signal compared to control sample: >90%
LATS2
  % change of MS signal compared to control sample: −6.6%
MAP2K6
  % change of MS signal compared to control sample: 5.9% and 2.5%
TLK1
  % change of MS signal compared to control sample: 1.8% and 5.5%
FRAP
  % change of MS signal compared to control sample: −3.5%
CLK3
  % change of MS signal compared to control sample: −15.7%
MARK2, MARK3
  % change of MS signal compared to control sample: −11.0%
STLK6
  % change of MS signal compared to control sample: −16.3%
FRK
  % change of MS signal compared to control sample: 93.3%
GCN2
  % change of MS signal compared to control sample: −13.3% and −6.3%
MST4, YSK1
  % change of MS signal compared to control sample: 12.7%
PITSLRE
  % change of MS signal compared to control sample: −9.3%
p38b
  % change of MS signal compared to control sample: −1.5%
BLK
  % change of MS signal compared to control sample: >95%
PEK
  % change of MS signal compared to control sample: 2.6%
IRE1
  % change of MS signal compared to control sample: −15.7%
PIK3CB
  % change of MS signal compared to control sample: −42.6%
MAP3K3
  % change of MS signal compared to control sample: 42.8%
FYN, SRC, YES
  % change of MS signal compared to control sample: 98.4%
CK1g2
  % change of MS signal compared to control sample: −3.7%
RSK2 domain2
  % change of MS signal compared to control sample: −0.3%
NEK4
  % change of MS signal compared to control sample: 7.9%
PCTAIRE1, PCTAIRE3
  % change of MS signal compared to control sample: 14.9%
PCTAIRE2, PCTAIRE3
  % change of MS signal compared to control sample: 27.0%
MAPKAPK3
  % change of MS signal compared to control sample: 0.9%
PRP4
  % change of MS signal compared to control sample: −4.1%
PRPK
  % change of MS signal compared to control sample: −3.8%
PCTAIRE2
  % change of MS signal compared to control sample: 9.9%
PCTAIRE1
  % change of MS signal compared to control sample: 38.2%
